In patent US20250084056A1, “SUBSTITUTED OXOISOINDOLINYL PIPERIDINE-2,6-DIONE COMPOUNDS” (BRISTOL-MYERS SQUIBB COMPANY, priority 2023, published 2025):
pIC50: −log10 of the molar value.

How the values were obtained:
Format in all cases: cell-based
[1] = test system: Phospho-Rb (Ser807/811); assay: Phospho-Retinoblastoma (pRB) Cellular Assay; details: Homo sapiens, OVCAR-3, NIH OVCAR3 cells, 24 hours; for pIC50: concentration giving 50% response; for Emax: maximum response, reference compound at 10 μM = 100%, read-out: pRB Ymax
Summary of the method: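 Phospho-Rb (Ser807/811) kit read-out on EnVision after lysis (≥4 h, room temperature, dark) of OVCAR3 cells exposed to compound dilutions for 24 h. IC50 and maximum response Ymax are relative to a 10 μM reference compound defining 100%.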

[2] = biological target: GSPT1 (Homo sapiens, UniProt P15170+Q96SW2); assay: GSPT1 Cellular Degradation Assay (DF15-GSPT1-ePL); set-up: expressed in transfected cells; details: DF15-GSPT1-ePL cells, 20 hours
Summary of the method: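 DC50 and Dmax were derived from chemiluminescence, with 75% response set by the reference compound at […]. Readout was ePL enzyme-fragment complementation in a DF15 line expressing chimeric GSPT1. Cells were exposed to compound for 20 h at 37 °C in RPMI 1640 with 10% FBS, cooled 30 min, then lysed with substrate for 60 min.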

[3] = biological target: Cyclin E1 (Homo sapiens, UniProt P24864+Q96SW2); assay: Cyclin E1 Cellular Degradation Assay (MSD); set-up: endogenous in cells; host or cells: OVCAR3; details: for DC50 / Dmax: Cyclin E1 cellular degradation; for Dmax: maximum degradation; for Ratio of GSPT1 DC50/Cyclin E1 DC50: selectivity for degradation of Cyclin E1 over GSPT1
Summary of the method: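 Cyclin E1 remaining after 24 h compound exposure of OVCAR3 cells was quantified in lysates by electrochemiluminescent MSD sandwich assay. DC50 (50% response concentration) and Dmax (maximum response) were calculated, with 110% response set by a reference compound at […].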

Chain of GSPT1 (P15170 whole entry, the tested form may be a part): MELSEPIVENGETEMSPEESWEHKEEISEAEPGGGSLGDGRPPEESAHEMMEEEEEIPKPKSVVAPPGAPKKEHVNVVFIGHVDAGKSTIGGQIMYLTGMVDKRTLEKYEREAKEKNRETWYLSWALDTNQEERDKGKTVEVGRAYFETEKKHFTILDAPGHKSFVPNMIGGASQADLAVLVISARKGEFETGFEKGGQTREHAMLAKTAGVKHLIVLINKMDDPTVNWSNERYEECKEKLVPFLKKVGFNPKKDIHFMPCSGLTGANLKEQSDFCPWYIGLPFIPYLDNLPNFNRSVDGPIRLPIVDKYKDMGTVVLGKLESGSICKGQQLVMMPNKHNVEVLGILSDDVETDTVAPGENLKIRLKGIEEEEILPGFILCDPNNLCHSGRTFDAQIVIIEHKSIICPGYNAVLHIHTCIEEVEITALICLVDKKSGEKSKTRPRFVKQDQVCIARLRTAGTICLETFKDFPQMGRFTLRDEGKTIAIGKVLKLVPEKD
Chain of GSPT1 (Q96SW2 whole entry, the tested form may be a part): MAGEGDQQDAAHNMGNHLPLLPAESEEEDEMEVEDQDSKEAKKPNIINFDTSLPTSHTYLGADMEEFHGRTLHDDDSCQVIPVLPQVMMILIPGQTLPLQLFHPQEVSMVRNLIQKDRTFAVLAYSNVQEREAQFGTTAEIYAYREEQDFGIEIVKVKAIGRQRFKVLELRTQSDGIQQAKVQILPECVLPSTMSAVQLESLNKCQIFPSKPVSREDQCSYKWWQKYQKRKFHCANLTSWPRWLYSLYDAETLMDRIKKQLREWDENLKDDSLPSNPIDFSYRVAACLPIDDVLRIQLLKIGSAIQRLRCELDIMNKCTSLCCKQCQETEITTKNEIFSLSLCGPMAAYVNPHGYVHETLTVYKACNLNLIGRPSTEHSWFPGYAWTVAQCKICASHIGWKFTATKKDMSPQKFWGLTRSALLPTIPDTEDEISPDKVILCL
Chain of GSPT1 (Q16531 whole entry partner, the tested form may be a part): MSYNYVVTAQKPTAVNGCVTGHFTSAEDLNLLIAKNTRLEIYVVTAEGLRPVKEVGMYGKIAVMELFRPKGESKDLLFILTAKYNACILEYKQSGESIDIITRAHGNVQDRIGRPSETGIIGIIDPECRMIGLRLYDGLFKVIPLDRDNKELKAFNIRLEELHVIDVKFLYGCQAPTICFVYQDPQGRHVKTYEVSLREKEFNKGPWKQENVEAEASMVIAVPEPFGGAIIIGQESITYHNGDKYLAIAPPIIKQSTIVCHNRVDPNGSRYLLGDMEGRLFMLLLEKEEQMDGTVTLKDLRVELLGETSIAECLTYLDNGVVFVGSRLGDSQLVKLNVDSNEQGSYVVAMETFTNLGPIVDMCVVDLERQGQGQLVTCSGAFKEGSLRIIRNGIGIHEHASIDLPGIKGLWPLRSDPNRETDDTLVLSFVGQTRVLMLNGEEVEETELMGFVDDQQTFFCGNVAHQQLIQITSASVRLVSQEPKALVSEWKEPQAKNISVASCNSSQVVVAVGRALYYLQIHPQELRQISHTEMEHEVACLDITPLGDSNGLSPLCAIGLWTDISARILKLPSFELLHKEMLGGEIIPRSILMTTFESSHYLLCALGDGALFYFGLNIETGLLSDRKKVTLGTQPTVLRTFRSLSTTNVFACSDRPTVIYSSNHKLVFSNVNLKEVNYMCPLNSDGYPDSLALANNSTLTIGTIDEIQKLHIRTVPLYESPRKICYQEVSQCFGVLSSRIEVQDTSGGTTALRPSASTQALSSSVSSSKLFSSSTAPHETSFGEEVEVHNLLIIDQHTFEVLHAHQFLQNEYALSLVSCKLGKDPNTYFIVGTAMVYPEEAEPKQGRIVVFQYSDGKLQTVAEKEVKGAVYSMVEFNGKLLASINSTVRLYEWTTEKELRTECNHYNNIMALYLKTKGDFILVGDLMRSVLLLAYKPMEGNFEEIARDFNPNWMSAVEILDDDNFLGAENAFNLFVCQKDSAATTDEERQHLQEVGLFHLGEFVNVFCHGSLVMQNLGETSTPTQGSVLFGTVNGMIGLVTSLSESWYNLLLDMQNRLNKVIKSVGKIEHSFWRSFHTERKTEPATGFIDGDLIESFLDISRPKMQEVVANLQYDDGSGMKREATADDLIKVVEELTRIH
Chain of Cyclin E1 (P24864 whole entry): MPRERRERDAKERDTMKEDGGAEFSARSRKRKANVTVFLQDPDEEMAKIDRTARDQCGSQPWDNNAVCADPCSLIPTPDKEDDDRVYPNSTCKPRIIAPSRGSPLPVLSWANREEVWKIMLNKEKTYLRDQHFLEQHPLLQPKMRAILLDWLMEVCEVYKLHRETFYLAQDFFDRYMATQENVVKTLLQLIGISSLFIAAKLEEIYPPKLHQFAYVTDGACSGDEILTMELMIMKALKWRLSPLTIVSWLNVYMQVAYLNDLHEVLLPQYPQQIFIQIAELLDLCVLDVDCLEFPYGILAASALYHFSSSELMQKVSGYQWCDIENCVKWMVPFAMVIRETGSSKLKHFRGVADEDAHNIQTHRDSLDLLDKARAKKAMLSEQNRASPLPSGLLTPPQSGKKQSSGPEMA
Chain of Cyclin E1 (Q96SW2 whole entry): as the sequence (Q96SW2 whole entry, the tested form may be a part) above
Chain of Cyclin E1 (Q16531 whole entry partner): as the sequence (Q16531 whole entry partner, the tested form may be a part) above

Compound	pIC50 [1]	Emax [1] [%]	DC50 [2] [µM]	Dmax [2] [%]	DC50 [3] [nM]	Dmax [3] [%]	Ratio of GSPT1 DC50/Cyclin E1 DC50 [3]
COc1c(COC(=O)Nc2ccc(Oc3ccccc3C)cc2)ccc2c1C(=O)N(C1CCC(=O)NC1=O)C2 (centres unmarked) [Example 101, [2-(2,6-dioxopiperidin-3-yl)-4-methoxy-3-oxo-2,3-dihydro-1H-isoindol-5-yl]methyl N-[4-(2-methylphenoxy)phenyl]carbamate]	7.21	111	> 14	18	72	108	>194
COc1c(COC(=O)Nc2ccc(Oc3ccc(F)cc3Cl)cc2)ccc2c1C(=O)N(C1CCC(=O)NC1=O)C2 (centres unmarked) [Example 102, [2-(2,6-dioxopiperidin-3-yl)-4-methoxy-3-oxo-2,3-dihydro-1H-isoindol-5-yl]methyl N-[4-(2-chloro-4-fluorophenoxy)phenyl]carbamate]	6.92	120	> 14	35	59	108	>236
COc1c(COC(=O)Nc2ccc(Oc3ccc(F)cc3Cl)cc2C)ccc2c1C(=O)N(C1CCC(=O)NC1=O)C2 (centres unmarked) [Example 103, [2-(2,6-dioxopiperidin-3-yl)-4-methoxy-3-oxo-2,3-dihydro-1H-isoindol-5-yl]methyl N-[4-(2-chloro-4-fluorophenoxy)-2-methylphenyl]carbamate]	7.07	100	> 14	22	148	107	>95
COc1cc(Oc2ccc(F)cc2Cl)ccc1NC(=O)OCc1ccc2c(c1OC)C(=O)N(C1CCC(=O)NC1=O)C2 (centres unmarked) [Example 104, [2-(2,6-dioxopiperidin-3-yl)-4-methoxy-3-oxo-2,3-dihydro-1H-isoindol-5-yl]methyl N-[4-(2-chloro-4-fluorophenoxy)-2-methoxyphenyl]carbamate]	7.30	118	> 14	7	37	108	>380
COc1c(COC(=O)Nc2ccc(Oc3ccc(F)cc3Cl)cc2F)ccc2c1C(=O)N(C1CCC(=O)NC1=O)C2 (centres unmarked) [Example 105, [2-(2,6-dioxopiperidin-3-yl)-4-methoxy-3-oxo-2,3-dihydro-1H-isoindol-5-yl]methyl N-[4-(2-chloro-4-fluorophenoxy)-2-fluorophenyl]carbamate]	7.48	120	> 14	50	52	107	>268
COc1c(COC(=O)Nc2ccc(Oc3cc(F)ccc3Cl)cc2)ccc2c1C(=O)N(C1CCC(=O)NC1=O)C2 (centres unmarked) [Example 106, [2-(2,6-dioxopiperidin-3-yl)-4-methoxy-3-oxo-2,3-dihydro-1H-isoindol-5-yl]methyl N-[4-(2-chloro-5-fluorophenoxy)phenyl]carbamate]	6.75	113	> 14	47	57	106	>245
COc1c(COC(=O)Nc2ccc(Oc3ccccc3Cl)cc2F)ccc2c1C(=O)N(C1CCC(=O)NC1=O)C2 (centres unmarked) [Example 107, [2-(2,6-dioxopiperidin-3-yl)-4-methoxy-3-oxo-2,3-dihydro-1H-isoindol-5-yl]methyl N-[4-(2-chlorophenoxy)-2-fluorophenyl]carbamate]	6.97	124	10	63	69	108	146
COc1cc(Oc2cc(F)c(F)cc2Cl)ccc1NC(=O)OCc1ccc2c(c1OC)C(=O)N(C1CCC(=O)NC1=O)C2 (centres unmarked) [Example 108, [2-(2,6-dioxopiperidin-3-yl)-4-methoxy-3-oxo-2,3-dihydro-1H-isoindol-5-yl]methyl N-[4-(2-chloro-4,5-difluorophenoxy)-2-methoxyphenyl]carbamate]	6.95	112	> 14	24	99	106	>142
